From patent US4479962A, “Indazoloxypropanolamine derivatives and use in combating, and for the prophylaxis of, cardiac and circulatory diseases” (Boehringer Mannheim GmbH, priority 1981, dated 1984) come the findings set out here.

The test system of the experiment is left ventricle. Briefly: Cardiotonic effect in wake dogs, left ventricular dp/dt, in relation to isoprenalin. It is filed as in vivo. As to conditions: intravenous, wake mongrel dogs, average of two to four individual tests; for ED50: Canis lupus familiaris, increasing dosage in intervals of ten minutes, read-out: ED50 (dosage which achieves one-half of the maximum effect), dp/dt; for dp/dt (%) of 0.3/μg/kg Isoprenalin i.v. (maximum achievable effect in comparison to isoprenalin): relative to 0.3 μg/kg isoprenalin i.v. On the procedure:
For the tests, mongrel dogs of both sexes were used. In a preparatory operation, catheters had been inserted under aseptic conditions into the Arteria and Vena femoralis and, through the myocardium, into the left ventricle. The tests were begun not less than ten days after this operation, when the animals were again in a clinically healthy state. Throughout the test, during which the animals were wake, the arterial blood pressure was determined by means of a catheter and an electromechanical transducer. In addition, the pressure in the left ventricle was continuously measured by means of a tip manometer which had been introduced into the ventrical catheter and advanced as far as the heart, and from that pressure the differentiation based on the time dp/dt max was determined. The heart rate (f cor) was computed by counting the heart beats at a fast chart speed at given times of measurement. At the beginning of the experiments the animals were injected intravenously with 0.3 μg/kg of isoprenalin and the effect on the rapidity of the pressure increase recorded. After dissipation of this injection the test compounds were injected intravenously in increasing dosage rates in intervals of ten minutes and again the effect of each dosage level determined. For the characterization of the effectiveness of the test compounds two criteria were calculated: 1. The termination of the achievable maximum effect in comparison to isoprenalin. The maximum achievable effect of the test compound was compared to that of isoprenalin. (The higher the value, the stronger the effect.) 2. From the logarithm of the injected dosages and the effect after injection, the dosage was determined which achieves one-half of the maximum effect (ED 50). […]

The structures appear in SMILES notation.

Take `Cc1cccc(C)c1NCCNCC(O)COc1cccc2c1CCN2C=O` (centres unmarked) [1-(1-formylindolin-4-yloxy)-3-[2-(2,6-dimethylphenylamino)-ethylamino]-propan-2-ol]: the ED50 worked out at 4.2 µg/kg and the “dp/dt (%) of 0.3/μg/kg Isoprenalin i.v. (maximum achievable effect in comparison to isoprenalin)” value (shortened to “dp/dt (%)”) is given as 87%.

Turning to `Cc1cccc(C)c1NCCNCC(O)COc1cccc2[nH]ncc12` (centres unmarked) [1-(Indazol-4-yloxy)-3-[2-(2,6-dimethylphenylamino)ethylamino]-propan-2-ol], the ED50 came to 2.2 µg/kg and the “dp/dt (%)” value is given as 87%.

Regarding `Cc1cccc(C)c1NCCNCC(O)COc1cccc2[nH]nnc12.Cl.Cl` (centres unmarked) [1-(Benztriazol-4-yloxy)-3-[2-(2,6-dimethylphenylamino)-ethylamino]-propan-2-ol dihydrochloride], the ED50 was 3.5 µg/kg and the “dp/dt (%)” value is 100%.

With `O=[N+]([O-])c1cccc(NCCNCC(O)COc2cccc3[nH]ncc23)c1` (centres unmarked) [1-(indazol-4-yloxy)-3-[2-(3-nitrophenylamino)-ethylamino]-propan-2-ol], the ED50 came out at 2 µg/kg and the “dp/dt (%)” value was found to be 66%.

With `Cc1cccc(C)c1NCCCNCC(O)COc1cccc2[nH]ncc12` (centres unmarked) [1-(indazol-4-yloxy)-3-[3-2,6-dimethylphenylamino)-propylamino]-propan-2-ol], the ED50 is 4.2 µg/kg and the “dp/dt (%)” value is on record as 110%.

In the case of `Cc1cccc(C)c1NCCNCC(O)COc1cccc2[nH]ccc12.O=C(O)O` (centres unmarked) [1-(Indol-4-yloxy)-3-[2-(2,6-dimethylphenylamino)-ethylamino]-propan-2-ol dihydrogen carbonate], the ED50 came out at 3.2 µg/kg and the “dp/dt (%)” value stood at 85%.

`OC(CNCCNc1cccc2c1CCC2)COc1cccc2[nH]ncc12` (centres unmarked) [1-(indazol-4-yloxy)-3-[2-(indanyl-4-amino)-ethylamino]-propan-2-ol]: the ED50 was 4.9 µg/kg and the “dp/dt (%)” value is 83%.
